Laboratory results reported in publication PMC9675574 (JCI Insight, 2022).
Like-named read-outs stand apart in the source and are kept apart here.

How the values were obtained:
Type in all cases: biochemical
[1] = target: human and mouse trypsin isoforms; experiment: Ki ranges over the panel of trypsin isoforms
Experimental: Michaelis-Menten kinetic parameters of trypsin isoforms were determined with the chromogenic substrate GPR-pNA at 24°C. […] Km and kcat values were calculated from hyperbolic fits to plots of reaction velocity versus substrate concentration. […] To determine the Ki, the Km values were plotted as a function of the inhibitor concentration, and the Ki was calculated by dividing the y axis intercept with the slope of the linear fit. This value corresponds to the negative of the x axis intercept. […] Experiments were performed 3 times and each experiment was analyzed separately. […] Kinetic analysis was performed with the Prism 8 program (GraphPad).

[2] = target: mouse trypsin isoform T8 (anionic trypsin) (Mus musculus, UniProt Q9R0T7); experiment: biochemical; conditions: for kcat / Km: GPR-pNA, 24°C
Experimental: (§1) Recombinant human and mouse trypsinogens were expressed in Escherichia coli BL21(DE3) (Invitrogen), refolded in vitro, and purified by ecotin affinity chromatography (Pharmacia FPLC), according to published protocols ([60], [63], [64]). Sulfated human trypsinogens were purified from archived samples of human pancreatic juice, as described previously, with minor modifications ([65], [66]). Briefly, 50 mg freeze-dried pancreatic juice was dissolved in 2 mL 10 mM HCl, clarified by centrifugation (21,000g, 5 minutes, 4°C), and loaded onto a MonoQ 5/50 GL column equilibrated with 20 mM Tris-HCl (pH 8.0). Proteins were eluted with a 0–0.5 M NaCl gradient at 1 mL/min flow rate for 30 minutes. The fractions containing the cationic and anionic trypsinogens were further purified with ecotin affinity chromatography. The concentration of trypsinogen preparations was estimated from their UV absorbance at 280 nm using the extinction coefficients reported previously for mouse trypsinogens ([64]) and 37,525, 38,890, and 41,535/M/cm for human cationic trypsinogen (PRSS1), anionic trypsinogen (PRSS2), and mesotrypsinogen (PRSS3), respectively. To activate trypsinogen to trypsin, approximately 1 μM solution was incubated at 37°C with 28.2 ng/mL human enterokinase (final concentration) in 0.1 M Tris-HCl (pH 8.0), 10 mM CaCl2, and 0.05% Tween 20 for 1 hour. The activation reaction was followed by measuring trypsin activity: 2 μL trypsin was diluted in 48 μL assay buffer [0.1 M Tris-HCl (pH 8.0), 1 mM CaCl2, and 0.05% Tween 20], and 150 μL of 200 μM GPR-pNA trypsin substrate (in assay buffer) was added. Substrate cleavage resulting in the release of the yellow p-nitroaniline was monitored for 1 minute in a Spectramax Plus 384 microplate reader at 405 nm.
(§2) Michaelis-Menten kinetic parameters of trypsin isoforms were determined with the chromogenic substrate GPR-pNA at 24°C. The trypsin concentration was 1 nM and the substrate concentration was varied typically between 1.56 and 200 μM in a final volume of 200 μL assay buffer. The substrate concentration range was 3.1–400 μM for mouse trypsin isoform T7 and 0.4–50 μM for mouse trypsin isoform T20. Km and kcat values were calculated from hyperbolic fits to plots of reaction velocity versus substrate concentration.
(§3) Michaelis-Menten kinetic parameters were then measured after adding 100 μL trypsin substrate, as described above. […] To determine the Ki, the Km values were plotted as a function of the inhibitor concentration, and the Ki was calculated by dividing the y axis intercept with the slope of the linear fit. This value corresponds to the negative of the x axis intercept. Alternatively, the substrate saturation curves obtained in the absence and presence of the increasing inhibitor concentrations were globally fitted to the competitive inhibition equation y = vmax × (x/[KmObs+ x]), where y is the reaction velocity, vmax is the maximal velocity, x is the substrate concentration, and KmObs = Km × (1 + [I]/Ki), where [I] is the inhibitor concentration. Experiments were performed 3 times and each experiment was analyzed separately. […] Kinetic analysis was performed with the Prism 8 program (GraphPad).

[3] = target: mouse trypsin isoform T9 (anionic trypsin) (Mus musculus, UniProt Q9QUK9); experiment: biochemical; conditions: for kcat / Km: GPR-pNA, 24°C; for Ki: mean ± SD, n = 3
Experimental: as §1, §2, §3

[4] = target: T1, human trypsin isoform PRSS1 (cationic trypsin), recombinant (Homo sapiens, UniProt P07477); experiment: Competitive inhibition kinetics of trypsin, GPR-pNA substrate; conditions: for kcat / Km: GPR-pNA, 24°C; for Ki: mean ± SD, n = 3
T1 construct: made in house; host or cells: Escherichia coli BL21(DE3)
Experimental: as §1, §2, §3

[5] = target: T2, sulfated human trypsin PRSS1-SO4 purified from pancreatic juice (Homo sapiens, UniProt P07477); experiment: as above; conditions: for kcat / Km: GPR-pNA, 24°C; for Ki: mean ± SD, n = 3
T2 construct: from tissue; host or cells: human pancreatic juice
Experimental: as §1, §2, §3

[6] = target: T3, sulfated human trypsin PRSS2-SO4 purified from pancreatic juice (Homo sapiens, UniProt P07478); experiment: as above; conditions: for kcat / Km: GPR-pNA, 24°C; for Ki: mean ± SD, n = 3
T3 construct: from tissue; host or cells: human pancreatic juice
Experimental: as §1, §2, §3

[7] = target: T4, human trypsin isoform PRSS2 (anionic trypsin), recombinant (Homo sapiens, UniProt P07478); experiment: as above; conditions: for kcat / Km: GPR-pNA, 24°C; for Ki: mean ± SD, n = 3
T4 construct: made in house; host or cells: Escherichia coli BL21(DE3)
Experimental: as §1, §2, §3

[8] = range over trypsin isoforms tested, read-out: Ki range, individual fit analysis

mouse trypsin isoform T8 (anionic trypsin), sequence (Q9R0T7 24-246): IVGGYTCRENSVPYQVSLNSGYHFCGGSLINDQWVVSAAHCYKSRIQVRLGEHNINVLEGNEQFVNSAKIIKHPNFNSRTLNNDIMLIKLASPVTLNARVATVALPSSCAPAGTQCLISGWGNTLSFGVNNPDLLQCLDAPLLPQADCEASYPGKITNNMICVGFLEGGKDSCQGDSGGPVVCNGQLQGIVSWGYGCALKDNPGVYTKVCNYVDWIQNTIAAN
T4 sequence (P07478 24-247): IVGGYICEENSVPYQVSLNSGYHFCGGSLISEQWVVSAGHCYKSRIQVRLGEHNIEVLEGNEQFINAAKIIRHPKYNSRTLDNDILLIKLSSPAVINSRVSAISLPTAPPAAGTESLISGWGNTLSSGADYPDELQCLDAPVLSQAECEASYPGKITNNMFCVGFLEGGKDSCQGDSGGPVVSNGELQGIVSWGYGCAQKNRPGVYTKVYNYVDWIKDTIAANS
T3 sequence (P07478 24-247): as above
mouse trypsin isoform T9 (anionic trypsin), sequence (Q9QUK9 24-246): as the sequence (Q9R0T7 24-246) above, with V12I, S44T, N218D counted along it

N=C(N)c1ccccc1 [benzamidine]
Ki [1, 8]: 3300 to 20600 nM | kcat ([2]; 12.5 μM benzamidine): 103.9 ± 7.9 per second | kcat ([2]; 25 μM benzamidine): 105.6 ± 4.9 per second | kcat ([2]; 37.5 μM benzamidine): 100.2 ± 0.8 per second | kcat ([2]; 50 μM benzamidine): 105.5 ± 7 per second | Ki ([2]; mean ± SD, n = 3): 6700 ± 1300 nM | kcat ([3]; 12.5 μM benzamidine): 110 ± 3.4 per second | kcat ([3]; 25 μM benzamidine): 111.4 ± 2.8 per second | kcat ([3]; 37.5 μM benzamidine): 114.8 ± 2.8 per second | kcat ([3]; 50 μM benzamidine): 112.3 ± 4.5 per second | Ki [3]: 6800 ± 1000 nM | kcat ([4]; 25 μM benzamidine): 134.8 ± 1.7 per second | kcat ([4]; 50 μM benzamidine): 121 ± 3.3 per second | kcat ([4]; 75 μM benzamidine): 136.3 ± 9.2 per second | kcat ([4]; 100 μM benzamidine): 143.2 ± 8.1 per second | Ki ([4]; Ki benzamidine, Global fit): 22500 ± 4000 nM | Ki ([4]; Ki benzamidine, Individual fit): 15700 ± 4700 nM | kcat ([5]; 12.5 μM benzamidine): 104.1 ± 2.8 per second | kcat ([5]; 25 μM benzamidine): 112.1 ± 4.9 per second | kcat ([5]; 37.5 μM benzamidine): 108.4 ± 5.3 per second | kcat ([5]; 50 μM benzamidine): 113.6 ± 7.2 per second | Ki ([5]; Ki benzamidine, Global fit): 10500 ± 900 nM | Ki ([5]; Ki benzamidine, Individual fit): 8300 ± 2200 nM | kcat ([6]; 12.5 μM benzamidine): 64.8 ± 1.6 per second | kcat ([6]; 25 μM benzamidine): 64.3 ± 1.4 per second | kcat ([6]; 37.5 μM benzamidine): 64.5 ± 1.5 per second | kcat ([6]; 50 μM benzamidine): 69.3 ± 0.3 per second | Ki ([6]; Ki benzamidine, Global fit): 4200 ± 700 nM | Ki ([6]; Ki benzamidine, Individual fit): 3300 ± 500 nM | kcat ([7]; 25 μM benzamidine): 78.7 ± 1.7 per second | kcat ([7]; 50 μM benzamidine): 78.4 ± 1.8 per second | kcat ([7]; 75 μM benzamidine): 82.1 ± 2.4 per second | kcat ([7]; 100 μM benzamidine): 78.3 ± 4.5 per second | Ki ([7]; Ki benzamidine, Global fit): 8900 ± 700 nM | Ki ([7]; Ki benzamidine, Individual fit): 8600 ± 2200 nM

[H]/N=C(/N)c1ccc(NCc2nc3cc(C(=O)N(CCC(=O)O)c4ccccn4)ccc3n2C)cc1 [dabigatran]
Ki ([1]; all human and mouse trypsin isoforms, read-out: Ki range): 10 to 79 nM | Ki ([1]; range over trypsin isoforms tested, read-out: Ki range, global fit analysis): 10.3 to 78.9 nM | Ki [1, 8]: 10 to 65 nM | Ki [2]: 31.6 ± 2.6 nM | Km ([2]; 50 nM dabigatran): 20.6 ± 1.5 µM | kcat ([2]; 50 nM dabigatran): 90.4 ± 1 per second | Km ([2]; 100 nM dabigatran): 34.2 ± 4.1 µM | kcat ([2]; 100 nM dabigatran): 92.3 ± 1.6 per second | Km ([2]; 150 nM dabigatran): 46.3 ± 3 µM | kcat ([2]; 150 nM dabigatran): 88.9 ± 1.3 per second | Km ([2]; 200 nM dabigatran): 60.8 ± 4 µM | kcat ([2]; 200 nM dabigatran): 85.1 ± 7.2 per second | Km ([3]; 50 nM dabigatran): 19.8 ± 2.7 µM | kcat ([3]; 50 nM dabigatran): 75.8 ± 2 per second | Km ([3]; 100 nM dabigatran): 28.3 ± 2.8 µM | kcat ([3]; 100 nM dabigatran): 72.5 ± 2.6 per second | Km ([3]; 150 nM dabigatran): 46.1 ± 2.4 µM | kcat ([3]; 150 nM dabigatran): 78.4 ± 0.1 per second | Km ([3]; 200 nM dabigatran): 56.7 ± 7.3 µM | kcat ([3]; 200 nM dabigatran): 77.6 ± 2.5 per second | Ki ([3]; Ki dabigatran, Global fit): 35.8 ± 3.5 nM | Ki ([3]; Ki dabigatran, Individual fit): 28.4 ± 7.1 nM | Km ([4]; 25 nM dabigatran): 31.3 ± 3.6 µM | kcat ([4]; 25 nM dabigatran): 90.8 ± 2.8 per second | Km ([4]; 50 nM dabigatran): 50.2 ± 2.5 µM | kcat ([4]; 50 nM dabigatran): 91.6 ± 4.8 per second | Km ([4]; 75 nM dabigatran): 71.1 ± 4.2 µM | kcat ([4]; 75 nM dabigatran): 95 ± 2.3 per second | Km ([4]; 100 nM dabigatran): 88.7 ± 3.1 µM | kcat ([4]; 100 nM dabigatran): 99.8 ± 3.3 per second | Ki ([4]; Ki dabigatran, Global fit): 28.2 ± 4.5 nM | Ki ([4]; Ki dabigatran, Individual fit): 21 ± 2.3 nM | Km ([5]; 25 nM dabigatran): 21.4 ± 1.5 µM | kcat ([5]; 25 nM dabigatran): 101 ± 2.3 per second | Km ([5]; 50 nM dabigatran): 32.7 ± 3 µM | kcat ([5]; 50 nM dabigatran): 105.5 ± 5.1 per second | Km ([5]; 75 nM dabigatran): 42.8 ± 7.8 µM | kcat ([5]; 75 nM dabigatran): 103.2 ± 4.2 per second | Km ([5]; 100 nM dabigatran): 57 ± 2.1 µM | kcat ([5]; 100 nM dabigatran): 104.7 ± 2.1 per second | Ki ([5]; Ki dabigatran, Global fit): 23.3 ± 2 nM | Km ([6]; 25 nM dabigatran): 13 ± 0.5 µM | kcat ([6]; 25 nM dabigatran): 63.4 ± 0.4 per second | Km ([6]; 50 nM dabigatran): 23.5 ± 1.3 µM | kcat ([6]; 50 nM dabigatran): 66.8 ± 1.6 per second | Km ([6]; 75 nM dabigatran): 31.5 ± 0.4 µM | kcat ([6]; 75 nM dabigatran): 63.8 ± 0.9 per second | Km ([6]; 100 nM dabigatran): 42.4 ± 3.5 µM | kcat ([6]; 100 nM dabigatran): 67.2 ± 1.9 per second | Ki ([6]; Ki dabigatran, Global fit): 10.3 ± 0.5 nM | Ki ([6]; Ki dabigatran, Individual fit): 10 ± 3.2 nM | Km ([7]; 25 nM dabigatran): 23 ± 1.3 µM | kcat ([7]; 25 nM dabigatran): 90.6 ± 2.6 per second | Km ([7]; 50 nM dabigatran): 37.6 ± 0.6 µM | kcat ([7]; 50 nM dabigatran): 89.1 ± 1.7 per second | Km ([7]; 75 nM dabigatran): 46.8 ± 1.5 µM | kcat ([7]; 75 nM dabigatran): 90.2 ± 2.3 per second | Km ([7]; 100 nM dabigatran): 61.1 ± 6.1 µM | kcat ([7]; 100 nM dabigatran): 87.5 ± 4.4 per second | Ki ([7]; Ki dabigatran, Global fit): 14.1 ± 1.1 nM | Ki ([7]; Ki dabigatran, Individual fit): 17.9 ± 3.3 nM
